From patent publication US11390637B2, “Salts of antiviral phosphonate analogues and process for preparation thereof” (CIPLA LIMITED, priority 2017, dated 2022) come the findings set out here.

The nature of series [1]: In-vitro intrinsic dissolution of 200 mg pellets of API without excipients. In kind it is physicochemical. The settings on record: for % release of Compound (I) from the respective Salts: Table 8; for % release of Compound (I) from the respective Salts / % release of active from fumarate salt pellet: 200 mg pellet, 0.01N HCl, 37° C., paddle 75 rpm; for % release of active from fumarate salt pellet: Table 7. How it is done: A tableting mixture (200 mg) comprising solely salts of (((1-(6-amino-9H-purin-9-yl)propan-2-yloxy)methyl) (phenoxy) phosphoryloxy) methyl pivalate-prepared according to any one of the examples 1 to 10 (i.e. with no excipients) was prepared and compressed to a pellet using an automatic KBR press operating at a compression pressure of 2 tones for 2 minutes.
Similarly a tableting mixture (200 mg) comprising a solely TAF (i.e. with no excipients) was prepared and compressed to a pellet using an automatic KBR press operating at a compression pressure of 2 tones for 2 minutes.
A tableting mixture (200 mg) comprising solely TDF (i.e. with no excipients) was prepared and compressed to a pellet using an automatic KBR press operating at a compression pressure of 2 tones for 2 minutes.
In-vitro dissolution studies were performed on the 200 mg pellet in a LAB INDIA DISSO 2000.
The pellet was fixed in a PFTE holder, such that only the pellet surface came into contact with the dissolution medium. The PFTE loaded holder was placed in the dissolution vessel containing 900 ml of 0.1M of HCl having […] at 37±0.5° C. Two pellets were measured for each run of the design of the experiments. Stirring was performed with a paddle rotating at 75 rpm. […]
Dissolution Media: 0.01N HCl
Bath temperature: 37.5° C.
Sample Preparation: Pellets were prepared by pressing sample with 2 ton pressure for 2 min
Note: Aliquots were analysed on HPLC.
The concentration of (((1-(6-amino-9H-purin-9-yl)propan-2-yloxy)methyl) (phenoxy) phosphoryloxy) methyl pivalate was quantified by HPLC UV method at a maximum wavelength of 300 nm under the conditions as specified below:
Standard Preparation: 25 mg standard dissolved to 25 ml with dissolution medium. 5 ml of this solution diluted to 25 ml with dissolution medium. Further 5 ml of this solution was diluted to 10 ml with diluent.
Sample Preparation: 200 mg of Sample pellets were prepared and subjected to dissolution. 10 ml of Aliquot was removed from the dissolution basket at predetermined time intervals. 5 ml of these aliquot was diluted to 10 ml with Diluent.
200 mg of input API of fumarate salt of (((1-(6-amino-9H-purin-9-yl)propan-2-yloxy)methyl) (phenoxy) phosphoryloxy) methyl pivalate used for pellet preparation.
The percentage of (((1-(6-amino-9H-purin-9-yl)propan-2-yloxy)methyl) (phenoxy) phosphoryloxy) methyl pivalate (TD), Tenofovir Alafenamide (TAF) and Tenofovir Disoproxil (TDF) released from the respective fumarate salt tablet were plotted against time as shown in FIG. 19. The intrinsic dissolution rate was derived from the slope of this curve.
To measure the intrinsic dissolution of the Salts of (((1-(6-amino-9H-purin-9-yl)propan-2-yloxy)methyl) (phenoxy) phosphoryloxy) methyl pivalate, samples were measured to compare the influence of the different parameter settings. At appropriate time intervals, an automated sample collector removes aliquots from the dissolution medium for analysis. The time interval for sampling can vary, for example, from 5 to 120 minutes, depending on the properties of the drug and dissolution medium used. Suitable dissolution equipment for these operations includes LAB INDIA DISSO 2000. Bath temperature—37.5° C.
200 mg of input API of each fumarate, oxalate, phosphate, citrate, succinate and tartrate Salts of (((1-(6-amino-9H-purin-9-yl)propan-2-yloxy)methyl) (phenoxy) phosphoryloxy) methyl pivalate used for pellet preparation.
The percentage of (((1-(6-amino-9H-purin-9-yl)propan-2-yloxy)methyl) (phenoxy) phosphoryloxy) methyl pivalate released from the respective salts tablet were plotted against time as shown in FIG. 20. The intrinsic dissolution rate was derived from the slope of this curve.

Series [2] is described as follows: Solubility in physiologically acceptable solvents (statement, no method described). The following applies: in words.
A short description of series [3]: Hygroscopicity (statement, no method described). The class given is physicochemical. The following applies: in words.

Counter-ions that a name gives are not always drawn.

For `CC(Cn1cnc2c(N)ncnc21)OCP(=O)(OCOC(=O)C(C)(C)C)Oc1ccccc1.O=C(O)CC(O)(CC(=O)O)C(=O)O` (centres unmarked) [Citrate, (((1-(6-amino-9H-purin-9-yl)propan-2-yloxy)methyl) (phenoxy)phosphoryloxy) methyl pivalate citric acid salt], the “% release of Compound (I) from the respective Salts” value (from here on “% release of Compound (I)”) in series [1] (5 min) was determined as 4%; in series [1] (15 min), 12%; in series [1] (30 min), 23%; in series [1] (45 min), 33%; in series [1] (60 min), 42%; in series [1] (90 min) it was 63%. The “% release of Compound (I)” value worked out at 70% in series [1] (120 min); 66% in series [1] (150 min); 67% in series [1] (180 min); 66% in series [1] (210 min); 69% in series [1] (240 min). Moreover, the “solubility in physiologically acceptable solvents” value in series [2] is “readily soluble”. Further, the hygroscopicity result in series [3] is “not hygroscopic”.

As for `CC(Cn1cnc2c(N)ncnc21)OCP(=O)(OCOC(=O)C(C)(C)C)Oc1ccccc1.O=C(O)/C=C/C(=O)O` (centres unmarked) [Fumarate, (((1-(6-amino-9H-purin-9-yl)propan-2-yloxy)methyl) (phenoxy)phosphoryloxy) methyl pivalate fumaric acid salt], the “% release of active from fumarate salt pellet” value (shortened to “% release of active”) in series [1] (5 min) came out at 7%; in series [1] (10 min) it was 5%; in series [1] (15 min), 6%; in series [1] (30 min) it was 12%; in series [1] (45 min) it was 18%; in series [1] (60 min) it was 24%. The “% release of active” value in series [1] (90 min) is 35%; in series [1] (120 min) it was 45%. Further, the “% release of Compound (I)” value in series [1] (5 min) was determined as 3%; in series [1] (15 min), 7%; in series [1] (30 min), 12%; in series [1] (45 min), 18%; in series [1] (60 min), 24%; in series [1] (90 min), 35%. The “% release of Compound (I)” value stood at 45% in series [1] (120 min); 56% in series [1] (150 min); 66% in series [1] (180 min); 75% in series [1] (210 min); 83% in series [1] (240 min). Moreover, the “dissolution profile compared with TAF and TDF” value in series [1] (in words, from the data of Table 7) was “slow dissolution profile than TAF and TDF”.

Take `CC(Cn1cnc2c(N)ncnc21)OCP(=O)(OCOC(=O)C(C)(C)C)Oc1ccccc1.O=C(O)C(=O)O` (centres unmarked) [Oxalate, (((1-(6-amino-9H-purin-9-yl)propan-2-yloxy)methyl) (phenoxy)phosphoryloxy) methyl pivalate oxalic acid salt]: the “% release of Compound (I)” value in series [1] (5 min) was 2%; in series [1] (15 min) it was 4%; in series [1] (30 min), 7%; in series [1] (45 min) it was 10%; in series [1] (60 min), 15%; in series [1] (90 min), 23%. Besides, the “% release of Compound (I)” value in series [1] (120 min) was 31%; in series [1] (150 min) it was 40%; in series [1] (180 min), 46%; in series [1] (210 min), 53%; in series [1] (240 min), 60%. The “dissolution profile compared to other salts” value in series [1] (in words, from the data of Table 8) was “slowest dissolution profile”. Moreover, the “solubility in physiologically acceptable solvents” value in series [2] is “readily soluble”. Further, the hygroscopicity entry in series [3] is recorded as “not hygroscopic”.

For `CC(C)OC(=O)[C@H](C)N[P@](=O)(CO[C@H](C)Cn1cnc2c(N)ncnc21)Oc1ccccc1` [TAF, Tenofovir Alafenamide Fumarate, reference compound], the “% release of active” value stood at 6% in series [1] (5 min); 7% in series [1] (10 min); 9% in series [1] (15 min); 16% in series [1] (30 min); 24% in series [1] (45 min); 31% in series [1] (60 min). The “% release of active” value in series [1] (90 min) amounted to 46%; in series [1] (120 min) it was 60%.

Take `CC(C)OC(=O)OCOP(=O)(CO[C@H](C)Cn1cnc2c(N)ncnc21)OCOC(=O)OC(C)C` [TDF, Tenofovir Disoproxil Fumarate, reference compound]: the “% release of active” value in series [1] (5 min) turned out to be 8%; in series [1] (10 min), 5%; in series [1] (15 min) it was 7%; in series [1] (30 min) it was 13%; in series [1] (45 min), 19%; in series [1] (60 min) it was 26%. For the same compound, the “% release of active” value was found to be 37% in series [1] (90 min) and 50% in series [1] (120 min).

In the case of `CC(Cn1cnc2c(N)ncnc21)OCP(=O)(OCOC(=O)C(C)(C)C)Oc1ccccc1.O=C(O)C(O)C(O)C(=O)O` (centres unmarked) [Tartrate, (((1-(6-amino-9H-purin-9-yl)propan-2-yloxy)methyl) (phenoxy)phosphoryloxy) methyl pivalate tartaric acid salt], the “% release of Compound (I)” value in series [1] (5 min) is listed as 2%; in series [1] (15 min), 6%; in series [1] (30 min), 12%; in series [1] (45 min), 17%; in series [1] (60 min) it was 24%; in series [1] (90 min), 35%. The “% release of Compound (I)” value in series [1] (120 min) amounted to 47%; in series [1] (150 min), 59%; in series [1] (180 min), 70%; in series [1] (210 min) it was 80%; in series [1] (240 min) it was 88%.
